Results as given in BindingDB's records for doi:10.1021/jm7014149 (Vu University Amsterdam, 2008).

Key:
Conditions in all cases: pH 7.4; 25 °C
[1] = target: T1, Histamine H3 receptor (Homo sapiens, UniProt Q9Y5N1); experiment: H3R Radioligand Binding Assay
[2] = target: Histamine H4 receptor (Homo sapiens, UniProt Q9H3N8); experiment: H4R Radioligand Binding Assay
Method: (§1) Ligand displacement assays were performed on CHO cells membranes expressing hH4R. Retained radioactivity was determined by liquid scintillation counting. Nonspecific binding was determined in the presence of 10 uM histamine. The Ki values were calculated based on an experimentally determined appropriate Kd value according to Cheng and Prusoff.

[3] = target: T1, Histamine H3 receptor; experiment: Radioligand Binding Assay and Functional [35S]GTP-gamma-S Binding Assay
Method: as §1, with “hH3R.” for “hH4R.”, “1” for “10”, “thioperamide.” for “histamine.”, “Prusoff. EC50 is a measure of functional property of compound on [35S]GTP-gamma-S binding to membranes expressing H3R receptors.” for “Prusoff.”

T1 sequence (Q9Y5N1 whole entry): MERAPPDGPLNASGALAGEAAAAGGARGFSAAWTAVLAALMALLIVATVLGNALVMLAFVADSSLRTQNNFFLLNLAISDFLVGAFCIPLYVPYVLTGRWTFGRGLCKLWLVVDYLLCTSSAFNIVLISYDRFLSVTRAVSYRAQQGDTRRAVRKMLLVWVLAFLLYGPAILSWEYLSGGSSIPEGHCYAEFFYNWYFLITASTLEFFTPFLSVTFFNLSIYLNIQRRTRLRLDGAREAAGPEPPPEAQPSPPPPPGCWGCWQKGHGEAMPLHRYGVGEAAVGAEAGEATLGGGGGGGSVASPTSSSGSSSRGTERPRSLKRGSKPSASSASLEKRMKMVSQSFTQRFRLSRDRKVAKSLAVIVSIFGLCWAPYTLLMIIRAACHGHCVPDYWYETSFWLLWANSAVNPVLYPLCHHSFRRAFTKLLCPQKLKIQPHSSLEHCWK
Sequence of Histamine H4 receptor (Q9H3N8 whole entry): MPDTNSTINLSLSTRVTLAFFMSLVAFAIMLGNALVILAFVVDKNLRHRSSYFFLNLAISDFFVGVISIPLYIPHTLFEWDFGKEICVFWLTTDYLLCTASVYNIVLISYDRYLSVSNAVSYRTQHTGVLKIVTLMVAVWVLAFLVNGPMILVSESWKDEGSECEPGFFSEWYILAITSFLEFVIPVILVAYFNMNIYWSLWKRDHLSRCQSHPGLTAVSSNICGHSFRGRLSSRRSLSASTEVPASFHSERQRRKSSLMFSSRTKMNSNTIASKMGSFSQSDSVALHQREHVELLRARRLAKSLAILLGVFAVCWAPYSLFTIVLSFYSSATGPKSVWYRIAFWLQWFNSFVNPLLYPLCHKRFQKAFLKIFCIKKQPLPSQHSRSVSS

SMILES	Ki [1] [nM]	Ki [2] [nM]	Ki [3] [nM]
CCCC#Cc1cccc(Cc2c[nH]cn2)c1 [4-{[3-(pent-1-yn-1-yl)phenyl]methyl}-1H-imidazole]	3		
CC(C)(C)C#Cc1cccc(Cc2c[nH]cn2)c1 [4-{[3-(3,3-dimethylbut-1-yn-1-yl)phenyl]methyl}-1H-imidazole]		6	4
CC1CC(C)(C)N=C(c2cccc(Cc3c[nH]cn3)c2)O1 (stereo unspecified) [2-[3-(1H-imidazol-4-ylmethyl)phenyl]-4,4,6-trimethyl-5,6-dihydro-4H-1,3-oxazine]			1
C(#Cc1cccc(Cc2cnc[nH]2)c1)c1ccccc1 [4-{[3-(2-phenylethynyl)phenyl]methyl}-1H-imidazole]	2		
CC(C)(C)CC(=O)c1cccc(Cc2cnc[nH]2)c1 [1-[3-(1H-imidazol-4-ylmethyl)phenyl]-3,3-dimethylbutan-1-one]		6	
